What was measured:
[1] = Antiasthmatic effect, oral (protection against histamine spray 30 min after oral administration in guinea-pigs); assay type: in vivo; settings: for ED50: Cavia porcellus, 0.5 h, read-out: Antiasthmatic effect, Oral (a), ED50; for b/a: ratio of diarrhea ED50 (b) to oral antiasthmatic ED50 (a)
Procedure: Guinea-pigs were sprayed for 10 sec with histamine 30 min after oral administration of test compounds and observed for 3 min. The percent of aminals protected was determined.

[2] = Antiasthmatic effect, aerosol (protection against sneezing induced by histamine aerosol in guinea-pigs); assay type: in vivo; settings: aerosol of test compound 15 sec, histamine 0.1% aerosol
Procedure: Guinea-pigs were placed in a chamber and sprayed for 10 sec with an aerosol of histamine solution (0.1%) and onset of sneezing was recorded and animals with control time of 70-100 sec were selected. These animals were sprayed for 15 sec with an aerosol of test compounds. After 45 sec, sprayed histamine and observed for 3 min it was. […] The percent of animals protected was determined.

[3] = Diarrhea-producing effect, oral, guinea-pigs; settings: guinea pig, in vivo, 2hr to next morning, read-out: (A) Diarrhea-producing effect (b), ED50
Procedure: II. Diaarrhea-producing effect
Test compounds were administered orally to guinea-pigs. The appearance of diarrhea (loose or watery feces) at 2hr, 3hr, 4hr, 5hr and next morning was noted.

[4] = Effect on air-way resistance (Konzett and Rossler; histamine-induced broncho-constriction, intraduodenal administration); assay type: in vivo, guinea-pig; settings: Cavia porcellus, 0.5 h, read-out: (B) Effect on airway resistance, ED50
Procedure: III. Effect on air-way resistance
The air-way resistance of the guinea-pig lung was determined by the method of Konzett and Rossler (Arch. exp. Path. Pharmak., 195, 71-74(1940)). The bronchorelaxing activity of prostaglandins were expressed in terms of protective effect against broncho-constriction elicited by intravenous injection of histamine (3 μg/kg). Histamine was injected 30 min after intraduodenal administration of test compound to urethane anesthetized and artificially ventilated guinea-pigs.

[5] = guinea-pigs, oral, histamine 30 min after administration

Structure (SMILES): CCCC[C@@H](C)C(O)/C=C/[C@H]1[C@H](O)CC(=O)[C@@H]1C/C=C\CCCC(=O)O (stereo partly drawn) [11α,15-dihydroxy-16(R)-methyl-9-oxo-5(cis)-13(trans)prostadienoic acid]
- ED50 ([1]; po): 0.0175 mg/kg
- b/a [1]: 1.43
- Antiasthmatic effect, Aerosol, ED50 [2]: 0.011 µg/mL
- TD50 [3]: 0.025 mg/kg

Structure (SMILES): CCCCC(C)C(O)/C=C/[C@H]1[C@H](O)CC(=O)[C@@H]1C/C=C\CCCC(=O)O (stereo partly drawn) [11α,15-dihydroxy-16-methyl-9-oxo-5(cis)-13(trans)prostadienoic acid]
- ED50 ([1]; po): 0.025 mg/kg
- b/a [1]: 4.0
- Antiasthmatic effect, Aerosol, ED50 [2]: 0.009 µg/mL
- TD50 [3]: 0.1 mg/kg

Structure (SMILES): COCCCCCC(O)/C=C/[C@H]1[C@H](O)CC(=O)[C@@H]1C/C=C\CCCC(=O)O (stereo partly drawn) [20-methoxy-PGE2, 11α,15-dihydroxy-20-methoxy-9-oxo-5(cis)-13(trans)prostadienoic acid]
- ED50 [1, 5]: > 0.8 mg/kg
- antiasthmatic effect upon oral administration (in words) ([1]; guinea-pigs, oral): no antiasthmatic effect upon oral administration
- Antiasthmatic effect, Aerosol, ED50 [2]: 0.15 µg/mL

Structure (SMILES): COCCCCC(C)C(O)/C=C/[C@H]1[C@H](O)CC(=O)[C@@H]1C/C=C\CCCC(=O)O (stereo partly drawn) [Example 3, 11α,15-dihydroxy-20-methoxy-16-methyl-9-oxo-5(cis)-13(trans)prostadienoic acid]
- ED50 ([1]; po): 0.0098 mg/kg
- b/a [1]: 12.2
- Antiasthmatic effect, Aerosol, ED50 [2]: 0.037 µg/mL
- ED50 [4]: 0.0135 mg/kg
- TD50 [3]: 0.12 mg/kg

Structure (SMILES): COCCCC[C@H](C)C(O)/C=C/[C@H]1[C@H](O)CC(=O)[C@@H]1C/C=C\CCCC(=O)O (stereo partly drawn) [Example 6, 11α,15-dihydroxy-20-methoxy-16(S)-methyl-9-oxo-5(cis)-13(trans)prostadienoic acid]
- ED50 ([1]; po): 0.71 mg/kg
- b/a [1]: 20.0
- TD50 [3]: 0.14 mg/kg

Structure (SMILES): COCCCC[C@H](C)C(O)/C=C/[C@H]1[C@H](O)CC(=O)[C@@H]1C/C=C\CCCC(=O)OC (stereo partly drawn) [Example 7 ([α]D^25-58.0°), 11α,15-dihydroxy-20-methoxy-16(S)-methyl-9-oxo-5(cis)-13(trans)prostadienoic acid methyl ester]
- ED50 ([1]; po): 0.016 mg/kg
- b/a [1]: 9.06
- TD50 [3]: 0.145 mg/kg

Structure (SMILES): COCCCCC(C)C(O)/C=C/[C@H]1[C@H](O)CC(=O)[C@@H]1C/C=C\CCCC(=O)OC (stereo partly drawn) [Example 7 ([α]D^25-66.4°), 11α,15-dihydroxy-20-methoxy-16-methyl-9-oxo-5(cis)-13(trans)prostadienoic acid methyl ester]
- ED50 ([1]; po): 0.0053 mg/kg
- b/a [1]: 9.62
- TD50 [3]: 0.051 mg/kg

Structure (SMILES): CCCCC[C@H](O)/C=C/[C@H]1[C@H](O)CC(=O)[C@@H]1C/C=C\CCCC(=O)O [Prostaglandin E2]
- ED50 [1, 5]: > 0.8 mg/kg
- antiasthmatic effect upon oral administration (in words) ([1]; guinea-pigs, oral): no antiasthmatic effect upon oral administration
- Antiasthmatic effect, Aerosol, ED50 [2]: 0.15 µg/mL
- ED50 ([4]; guinea-pigs, intraduodenal, histamine 3 μg/kg i.v. 30 min later): > 0.8 mg/kg

From US4246280A, “20-Alkoxy-16-alkyl-prostadienoic acid derivatives” (priority 1974, dated 1981)
